According to ChEMBL document CHEMBL3603826, “6-Arylpyrazine-2-carboxamides: A New Core for Trypanosoma brucei Inhibitors” (J Med Chem, 2015):
Converted amounts (≈) assume the structure as drawn.

Legend:
[1] = test system: Liver microsome; test: Drug level in human liver microsomes treated with 10 uM 3-Amino-N-cyclopentyl-6-(m-tolyl)pyrazine-2-carboxamide assessed as compound formation after 60 mins presence of NADPH regenerating system and UDPGA by LC-MS method; format: ADME; conditions: 1 h
[2] = test system: Liver microsome; test: Drug level in human liver microsomes treated with 10 uM 3-Amino-N-cyclopentyl-6-(m-tolyl)pyrazine-2-carboxamide assessed as compound formation after 60 mins presence of NADPH regenerating system by LC-MS method; format: ADME; conditions: 1 h
[3] = test system: Trypanosoma cruzi; test: Anti-parasitic activity against Trypanosoma cruzi Tulahuen C2C4 trypomastigotes infected rat L6 cells incubated for 96 hrs by CPRG/nonidet substrate based […]; format: functional, organism-based; conditions: Tulahuen C2C4, L6, 96 h
[4] = Drug stability in human liver microsomes assessed as parent compound loss after 60 mins at 10 uM absence of NADPH regenerating system and UDPGA by LC-MS method; format: ADME; conditions: read-out: Drug degradation
[5] = test system: Leishmania donovani; test: Anti-parasitic activity against Leishmania donovani MHOM/ET/67/L82 axenic amastigotes incubated for 70 hrs by alamar blue dye based assay; format: functional, organism-based; conditions: MHOM/ET/67/L82, 70 h
[6] = Kinetic solubility in pH 6.5 phosphate buffer by nephelometry; format: physicochemical; conditions: read-out: Kinetic_solubility
[7] = test system: Trypanosoma brucei rhodesiense; test: Anti-parasitic activity against Trypanosoma brucei rhodesiense STIB 900 trypomastigotes incubated for 70 hrs by alamar blue dye based assay; format: functional, organism-based; conditions: STIB 900, 70 h
[8] = Drug metabolism in human liver microsomes after 60 mins at 10 uM presence of NADPH regenerating system by LC-MS method; format: ADME; conditions: read-out: Drug metabolism
[9] = Partition coefficient, logD of the compound at pH 7.4 by HPLC method; format: physicochemical; conditions: octanol/water
[10] = test system: Trypanosoma brucei brucei; test: Anti-parasitic activity against Trypanosoma brucei brucei 427 bloodstream parasites incubated for 48 hrs by alamar blue dye based assay; format: functional, organism-based; conditions: Trypanosoma brucei, 427, 48 h
[11] = test system: Liver microsome; test: Drug metabolism in human liver microsomes assessed as oxygenated metabolite formation after 60 mins at 10 uM presence of NADPH regenerating system and UDPGA by LC-MS method; format: ADME; conditions: 1 h
[12] = test system: Plasmodium falciparum; test: Anti-parasitic activity against chloroquine and pyrimethamine resistant Plasmodium falciparum K1 erythrocytic stages infected in human erythrocytes incubated for 48 hrs by [3H]-hypoxanthine incorporation assay; format: functional, organism-based
[13] = Selectivity index, ratio of cytotoxic IC50 for rat L6 cells to EC50 for anti-parasitic activity against Trypanosoma brucei rhodesiense STIB 900; format: toxicity, cell-based; conditions: read-out: Ratio IC50/EC50
[14] = Selectivity index, ratio of cytotoxic IC50 for HEK293 cells to EC50 for anti-parasitic activity against Trypanosoma brucei brucei 427 bloodstream parasites; format: toxicity, cell-based; conditions: human, read-out: Ratio IC50/EC50
[15] = Toxicity against rat L6 cells incubated for 70 hrs by alamar blue dye based assay; format: cell-based
[16] = test system: Liver microsome; test: Drug metabolism in human liver microsomes assessed as N-oxide metabolite formation after 60 mins at 10 uM absence of NADPH regenerating system and UDPGA by LC-MS method; format: ADME; conditions: 1 h
[17] = Kinetic solubility in pH 2.0 0.01M HCl buffer by nephelometry; format: physicochemical; conditions: read-out: Kinetic_solubility
[18] = Intrinsic clearance in human liver microsomes assessed per mg protein at pH 7.4 at 0.5 uM in presence of NADPH regenerating system by LC-MS method; format: ADME; conditions: read-out: CLH
[19] = target: serum albumin (Homo sapiens, UniProt P02768); test: Binding affinity to human serum albumin by chromatographic method; format: ADME; conditions: read-out: PB (converted)
Sequence of serum albumin (P02768 whole entry): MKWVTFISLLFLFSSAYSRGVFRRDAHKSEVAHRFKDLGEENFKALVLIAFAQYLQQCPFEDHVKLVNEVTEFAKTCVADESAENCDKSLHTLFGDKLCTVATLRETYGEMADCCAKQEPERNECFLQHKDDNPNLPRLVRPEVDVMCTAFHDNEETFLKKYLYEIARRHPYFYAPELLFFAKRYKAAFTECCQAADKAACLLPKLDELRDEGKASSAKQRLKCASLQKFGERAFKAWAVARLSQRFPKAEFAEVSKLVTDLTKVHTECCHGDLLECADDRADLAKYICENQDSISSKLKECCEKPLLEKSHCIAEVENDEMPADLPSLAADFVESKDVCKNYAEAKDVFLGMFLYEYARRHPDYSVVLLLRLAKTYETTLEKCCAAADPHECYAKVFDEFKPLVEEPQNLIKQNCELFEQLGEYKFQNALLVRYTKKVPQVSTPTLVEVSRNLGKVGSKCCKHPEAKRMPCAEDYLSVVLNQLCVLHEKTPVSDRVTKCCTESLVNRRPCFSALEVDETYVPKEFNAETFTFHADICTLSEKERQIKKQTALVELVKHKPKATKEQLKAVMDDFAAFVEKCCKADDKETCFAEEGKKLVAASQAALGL

[20] = test system: Liver microsome; test: Drug metabolism in human liver microsomes assessed as oxygenated metabolite formation after 60 mins at 10 uM presence of NADPH regenerating system by LC-MS method; format: ADME; conditions: 1 h
[21] = Stability assessed as degradation half life; format: physicochemical
[22] = test system: Mus musculus; test: Blood clearance in Swiss mouse at 1.8 mg/kg, iv by LC-MS method relative to hepatic blood flow; format: ADME, organism-based, Liver; conditions: in vivo
[23] = Volume of distribution in Swiss mouse at 1.8 mg/kg, iv by LC-MS method; format: ADME, organism-based; conditions: in vivo
[24] = Apparent half life in Swiss mouse at 1.8 mg/kg, iv by LC-MS method; format: ADME, organism-based; conditions: in vivo, read-out: t1/2(app) (converted)
[25] = Blood clearance in Swiss mouse at 1.8 mg/kg, iv by LC-MS method; format: ADME, organism-based; conditions: whole blood
[26] = test system: Liver microsome; test: Drug level in human liver microsomes treated with 10 uM 3-Amino-N-cyclopentyl-6-(m-tolyl)pyrazine-2-carboxamide assessed as compound formation after 60 mins absence of NADPH regenerating system and UDPGA by LC-MS method; format: ADME; conditions: 1 h
[27] = Toxicity in late-stage human african trypanosomiasis patient assessed as mortality rate following 10-day schedule; format: organism-based; conditions: in vivo
[28] = test system: Brain; test: Drug concentration in Swiss mouse brain at normalized dose of 1 mg/kg, iv after 5 mins by LC-MS method; format: ADME, organism-based; conditions: in vivo
[29] = Ratio of drug concentration in brain to plasma of Swiss mouse at normalized dose of 1 mg/kg, iv after 5 mins by LC-MS method; format: ADME, organism-based; conditions: read-out: BPR

SMILES	EC50 [3] [µM]	EC50 [5] [µM]	solubility kinetic [6] [µg/mL]	EC50 [7] [µM]	logD [9]	EC50 [10] [µM]	EC50 [12] [µM]	selectivity ratio [13]	selectivity ratio [14]	IC50 at 70 h [15] [µM]	solubility kinetic [17] [µg/mL]	microsomal CLint at 0.5 µM [18] [µL/min/mg]	fraction unbound [19]	half-life [21] [min]	further results
Cc1cccc(-c2cnc(N)c(C(=O)NC3=CCCC3)n2)c1															Drug metabolism [1]: metabolite_detected; Drug metabolism [2]: metabolite_detected
Cc1cccc(-c2cnc(N)c(C(=O)NC3CCCC3)n2)c1	17	> 10	3.1 (≈ 10.5 µM)	0.024	4.6	0.035	4.9	1790	2380	42	3.1 (≈ 10.5 µM)	266	0.023	7	metabolised at 1 h, 10 µM [4]: 6%; metabolised at 1 h, 10 µM [8]: 92%; Drug metabolism [11]: metabolite_detected; Drug metabolism [16]: metabolite_detected; Drug metabolism [20]: metabolite_detected
CCC(CC)NC(=O)c1nc(-c2ccc(F)cc2)cnc1N	15	> 10	3.1 (≈ 10.3 µM)	0.053	4.4	0.08	7.6	540	1024	28	3.1 (≈ 10.3 µM)	84	0.036	21	CL [22]: 60%; Vd [23]: 14.7 L/kg; half-life [24]: 546 min; clearance [25]: 69 mL/min/kg
N#Cc1ccccc1-c1cnc(N)c(C(=O)NC2CCCC2)n1	5.2	> 10	< 1.6	0.57	3.9	0.2	2.5	19	416	11	3.1 (≈ 10.1 µM)	165	0.038	10	
Nc1ncc(-c2cccc(C(=O)O)c2)nc1C(=O)NC1CCCC1															Drug metabolism [1]: metabolite_detected; Drug metabolism [2]: metabolite_detected
Cc1cccc(-c2c[n+]([O-])c(N)c(C(=O)NC3CCCC3)n2)c1															Drug metabolism [1]: metabolite_detected; Drug metabolism [26]: metabolite_detected; Drug metabolism [2]: metabolite_detected
CCC(C)NC(=O)c1nc(-c2cccc(Cl)c2)cnc1N (centres undefined)	25	> 10	1.6 (≈ 5.25 µM)	2.02	4.4	0.48	1.1	20	175	39	1.6 (≈ 5.25 µM)	147	0.028	12	
CCC(CC)NC(=O)c1nc(-c2ccc(F)c(C)c2)cnc1N	13	> 10	< 1.6	0.038	4.8	0.025	1.8	630	423	24	< 1.6	212	0.022	8	
Nc1nc(N)nc(Nc2ccc([As]3SCC(CO)S3)cc2)n1 (centres undefined) [MELARSOPROL]															mortality at 10 day [27]: 5.9%
CCC(CC)NC(=O)c1nc(-c2ccc(F)cc2C#N)cnc1N	19	> 10	1.6 (≈ 4.89 µM)	0.089	4.2	0.1	2.9	230	850	20	< 1.6	66	0.029	26	
CCC(C)NC(=O)c1nc(-c2ccc(F)cc2)cnc1N (centres undefined)	17	> 10	50 (≈ 173 µM)	0.22	4	0.4	9	61	> 206	17	6.3 (≈ 21.9 µM)	119	0.058	15	Drug uptake [28]: 1069.5 ng/g; Kp at 5 min [29]: 5.1
Nc1ncc(-c2ccccc2)nc1C(=O)NC1CCCC1	13	> 10	25 (≈ 88.5 µM)	0.14	4.1	0.26	6.1	140	> 368	20	6.3 (≈ 22.3 µM)	198	0.042	9	Drug uptake [28]: 1192.3 ng/g; Kp at 5 min [29]: 5.7
CCC(CC)NC(=O)c1nc(-c2cccc(C)c2)cnc1N	20	> 10	1.6 (≈ 5.36 µM)	0.14	4.7	0.11	4.1	150	774	20	1.6 (≈ 5.36 µM)	194	0.036	9	
Nc1ncc(-c2cccc(CO)c2)nc1C(=O)NC1CCCC1															Drug metabolism [1]: metabolite_detected; Drug metabolism [2]: metabolite_detected
